Reference: paper PMC4791841, “Nanomolar Inhibitors of Trypanosoma brucei RNA Triphosphatase” (mBio, 2016)
Read-outs that look alike come from different tables or passages of the source.

What was measured:
MimiCE = molecular target: T1, MimiCE (Acanthamoeba polyphaga mimivirus, UniProt Q5UQX1); experiment: biochemical; type: biochemical; conditions: for IC50/IC50 TbCet1, MimiCE: ratio in parentheses;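 on all read-outs here: mimivirus capping enzyme triphosphatase ATPase reaction, radiolabeled ATP hydrolysis to Pi quantified by TLC after 10 min, normalized to no-inhibitor control with 5% DMSO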
T1 construct: the N-terminal RTPase domain (amino acids [aa] 1 to 237) of mimivirus capping enzyme (MimiCE); HisSmt3 (N, cleaved yes); made in house; host or cells: Escherichia coli
T1 sequence (Q5UQX1 1-237): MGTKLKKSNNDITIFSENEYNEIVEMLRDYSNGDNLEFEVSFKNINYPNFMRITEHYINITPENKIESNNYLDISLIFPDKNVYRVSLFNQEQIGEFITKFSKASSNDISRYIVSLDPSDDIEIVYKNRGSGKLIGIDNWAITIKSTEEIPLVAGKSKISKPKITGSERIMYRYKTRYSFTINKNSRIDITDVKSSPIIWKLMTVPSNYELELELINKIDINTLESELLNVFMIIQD

Lef4 = molecular target: T2, Lef4 (Autographa californica nuclear polyhedrosis virus, UniProt P41477); experiment: TLC assay for 32Pi release from [γ-32P]ATP, Lef4; type: biochemical, Autographa californica nucleopolyhedrovirus (AcNPV); conditions: for IC50: 50 nM Lef4, 37°C, read-out: IC50 Lef4; for IC50/IC50 TbCet1, Lef4: ratio in parentheses;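 on all read-outs here: Lef4 RNA triphosphatase cleaving radiolabelled ATP over 10 min at 37°C, hydrolysis set relative to inhibitor-free 5% DMSO controls, comparisons made against TbCet1 tested the same way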
T2 construct: the N-terminal RTPase domain (aa 1 to 236) of AcNPV Lef4 capping enzyme; HisSmt3 (N, cleaved yes); made in house; host or cells: Escherichia coli
T2 sequence (P41477 1-236): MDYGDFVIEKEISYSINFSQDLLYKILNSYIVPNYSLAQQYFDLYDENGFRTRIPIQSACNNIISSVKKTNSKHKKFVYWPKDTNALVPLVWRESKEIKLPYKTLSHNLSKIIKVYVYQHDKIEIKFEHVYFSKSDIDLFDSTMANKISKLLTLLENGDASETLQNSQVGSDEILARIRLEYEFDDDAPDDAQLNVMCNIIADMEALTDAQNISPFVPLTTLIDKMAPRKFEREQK

SceCet1 = molecular target: T3, SceCet1 (Saccharomyces cerevisiae, UniProt O13297); experiment: TLC assay for 32Pi release from [γ-32P]ATP, SceCet1; type: biochemical; conditions: for IC50/IC50 TbCet1, SceCet1: ratio in parentheses
T3 construct: C-terminal catalytic domain (aa 241 to 539) of S. cerevisiae RTPase (SceCet1); made in house; host or cells: Escherichia coli
T3 sequence (O13297 241-539): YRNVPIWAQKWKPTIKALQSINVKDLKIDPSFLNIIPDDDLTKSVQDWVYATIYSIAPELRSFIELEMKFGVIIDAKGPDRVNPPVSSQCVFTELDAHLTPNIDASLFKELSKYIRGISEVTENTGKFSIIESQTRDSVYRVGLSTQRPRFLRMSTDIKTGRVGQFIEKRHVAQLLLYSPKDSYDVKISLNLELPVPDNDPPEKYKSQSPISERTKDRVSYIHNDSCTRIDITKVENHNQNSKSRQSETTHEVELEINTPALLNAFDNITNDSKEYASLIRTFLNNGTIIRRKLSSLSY

CthTTM = molecular target: T4, CthTTM (Acetivibrio thermocellus, UniProt A3DIJ8); experiment: TLC assay for 32Pi release from [γ-32P]ATP, CthTTM; type: biochemical, Clostridium thermocellum; conditions: for IC50/IC50 TbCet1, CthTTM: ratio in parentheses
T4 sequence (A3DIJ8 1-156): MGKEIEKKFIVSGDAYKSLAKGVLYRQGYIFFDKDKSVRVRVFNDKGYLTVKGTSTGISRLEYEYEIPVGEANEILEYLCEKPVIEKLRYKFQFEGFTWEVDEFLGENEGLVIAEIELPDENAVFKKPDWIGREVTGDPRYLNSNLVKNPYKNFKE

TbCet1 = molecular target: T5, TbCet1 (Trypanosoma brucei brucei, UniProt Q582T2); experiment: TLC assay for 32Pi release from [γ-32P]ATP, TbCet1; conditions: for IC50: 2.2 nM TbCet1, 0.2 mM ATP, 2 mM Mn2+, 10 min 37°C; for inhibition of TbCet1 (in words): 32P phosphate release assay
T5 sequence (Q582T2 1-253): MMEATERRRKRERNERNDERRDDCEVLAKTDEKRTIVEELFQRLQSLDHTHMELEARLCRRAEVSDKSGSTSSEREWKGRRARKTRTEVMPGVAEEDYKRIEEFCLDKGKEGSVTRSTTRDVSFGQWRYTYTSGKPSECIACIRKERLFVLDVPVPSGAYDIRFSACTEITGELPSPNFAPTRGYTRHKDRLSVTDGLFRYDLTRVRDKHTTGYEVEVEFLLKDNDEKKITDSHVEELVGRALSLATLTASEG

[1] = read-out: IC50 MimiCE, 7 nM MimiCE, 37°C
[2] = 25 nM SceCet1, 30°C, read-out: IC50 SceCet1
[3] = 500 nM CthTTM, 37°C, read-out: IC50 CthTTM
[4] = read-out: IC50 SceCet1, 25 nM SceCet1, 30°C
[5] = read-out: IC50 CthTTM, 500 nM CthTTM, 37°C
[6] = read-out: IC50 TbCet1 by 32P assay

SMILES | IC50/IC50 TbCet1, MimiCE (MimiCE) | IC50 (Lef4) [µM] | IC50/IC50 TbCet1, Lef4 (Lef4) | IC50 (SceCet1; [2]) [µM] | IC50 (CthTTM; [3]) [µM] | IC50/IC50 TbCet1, CthTTM (CthTTM) | IC50 (MimiCE) [µM] | IC50 (TbCet1; IC50 TbCet1 by 32P assay) [µM] | IC50 (TbCet1; [6]) [µM] | also measured
O=C(/C=C/c1ccc(O)c(O)c1)OC1[C@H](OC(=O)/C=C/c2ccc(O)c(O)c2)CC(O)(C(=O)O)C[C@H]1OC(=O)/C=C/c1ccc(O)c(O)c1 (stereo in doubt) [Compound 1D, 3,4,5-Tricaffeoylquinic acid] | 107 | 7.2 | 48 | 10 | 160 | 1,067 | – | – | – | fold lower potency against MimiCE than against TbCet1 (MimiCE): 107 fold; IC50 (MimiCE; [1]): 16 µM; fold lower potency against Lef4 than against TbCet1 (Lef4): 48 fold; fold lower potency against SceCet1 than against TbCet1 (SceCet1): 67 fold; IC50/IC50 TbCet1, SceCet1 (SceCet1): 67; fold lower potency against CthTTM than against TbCet1 (CthTTM): 1,100 fold
O=C(Oc1cc(C(=O)O[C@@H]2C[C@@](O)(C(=O)O)C[C@@H](O)[C@@H]2O)cc(O)c1O)c1cc(O)c(O)c(O)c1 [Compound 1C, 5-galloyl-galloylquinic acid] | – | 75 | 682 | – | – | – | – | – | – | fold lower potency against Lef4 than against TbCet1 (Lef4): 680 fold; IC50 (SceCet1; [4]): > 500 µM; IC50 (CthTTM; [5]): > 500 µM; fold more potent as TbCet1 inhibitor than 5-galloylquinic acid (compound 1O) (TbCet1): 1,100 fold
O=C(/C=C/c1ccc(O)c(O)c1)O[C@@H]1C[C@](OC(=O)/C=C/c2ccc(O)c(O)c2)(C(=O)O)C[C@@H](OC(=O)/C=C/c2ccc(O)c(O)c2)[C@H]1O [Compound 1E, 1,3,5-tricaffeoylquinic acid] | 44 | 5.6 | 29 | 29 | 33 | 174 | 8.4 | 0.19 | – | IC50/IC50 TbCet1, SceCet1 (SceCet1): 153
O=C(Oc1cc(C(=O)O[C@@H]2C[C@@](O)(C(=O)O)C[C@@H](OC(=O)c3cc(O)c(O)c(O)c3)[C@@H]2O)cc(O)c1O)c1cc(O)c(O)c(O)c1 [Compound 1F, 3-galloyl,5-galloyl-galloylquinic acid] | 15 | 33 | 150 | – | – | 95 | – | – | – | IC50 (MimiCE; [1]): 3.4 µM; IC50 (SceCet1; [4]): > 500 µM; IC50 (CthTTM; [5]): 21 µM
O=C(/C=C/c1ccc(O)c(O)c1)O[C@@H]1C[C@](OC(=O)/C=C/c2ccc(O)c(O)c2)(C(=O)O)C[C@@H](O)[C@H]1O [Compound 1G, 1,3-dicaffeoylquinic acid] | 11 | 22 | 65 | > 500 | 55 | 162 | – | – | – | IC50 (MimiCE; [1]): 3.7 µM
O=C(/C=C/c1ccc(O)cc1)O[C@@H]1[C@H](O)C[C@@](O)(C(=O)O)C[C@H]1OC(=O)/C=C/c1ccc(O)cc1 [Compound 1H, 3,4-dicoumaroylquinic acid] | 40 | 140 | 108 | – | – | – | – | – | 1.3 | IC50 (MimiCE; [1]): 52 µM; IC50 (SceCet1; [4]): > 500 µM; IC50 (CthTTM; [5]): > 500 µM
O=C(/C=C/c1ccccc1)O[C@@H]1C[C@](OC(=O)/C=C/c2ccccc2)(C(=O)O)C[C@@H](OC(=O)/C=C/c2ccccc2)[C@H]1OC(=O)/C=C/c1ccccc1 [Compound 1I, tetracinnamoylquinic acid] | 11 | 6 | 4 | – | – | 11 | 17 | 1.6 | – | IC50 (SceCet1): > 500 µM; IC50 (CthTTM): 17 µM; fold less potent as TbCet1 inhibitor than tetracaffeoylquinic acid (compound 1A) (TbCet1): 120 fold
COc1ccc(/C=C/C(=O)O[C@@H]2C[C@@](O)(C(=O)O)C[C@@H](O)[C@@H]2O)cc1O [Compound 1J, 5-p-feruoylquinic acid] | – | – | – | > 500 | > 500 | – | – | – | 2.4 | –
O=C(OC1[C@H](OC(=O)c2ccccc2)CC(OC(=O)c2ccccc2)(C(=O)O)C[C@H]1OC(=O)c1ccccc1)c1ccccc1 (some centres unmarked) [Compound 1K] | 3 | 46 | 8 | – | – | 12 | 20 | 5.8 | – | IC50 (SceCet1): > 500 µM; IC50 (CthTTM): 72 µM
COc1cc(/C=C/C(=O)O[C@@H]2C[C@](O)(C(=O)O)C[C@@H](O)[C@H]2O)ccc1O [Compound 1L, 5-feruoylquinic acid] | – | > 500 | – | > 500 | > 500 | – | – | – | 12 | IC50 (MimiCE; 7 nM MimiCE, 37°C, read-out: IC50 MimiCE): > 500 µM
O=C(/C=C/c1ccc(O)cc1)O[C@@H]1CC(O)(C(=O)O)C[C@@H](OC(=O)/C=C/c2ccc(O)cc2)C1O (some centres unmarked) [Compound 1M, 3,5-dicoumaroylquinic acid] | – | > 500 | – | – | – | – | > 500 | 24 | – | IC50 (SceCet1): > 500 µM; IC50 (CthTTM): > 500 µM; fold drop in potency of TbCet1 inhibition versus 3,5-dicaffeoylquinic acid (compound 1B) (TbCet1): 340 fold
O=C(/C=C/c1ccc(O)cc1)OC1[C@H](O)CC(O)(C(=O)O)C[C@H]1O (some centres unmarked) [Compound 1N] | – | > 500 | – | > 500 | > 500 | – | > 500 | 25 | – | –
O=C(O[C@@H]1C[C@@](O)(C(=O)O)C[C@@H](O)[C@@H]1O)c1cc(O)c(O)c(O)c1 [Compound 1O, 5-galloylquinic acid] | – | > 500 | – | – | – | – | > 500 | 125 | – | activity against MimiCE (in words) (MimiCE): no activity; activity against Lef4 (in words) (Lef4): no activity; IC50 (SceCet1): 10 µM; IC50/IC50 TbCet1, SceCet1 (SceCet1): 0.08; IC50 (CthTTM): > 500 µM; activity against CthTTM (in words) (CthTTM): no activity
COc1cc(C=CC(=O)OC2[C@H](O)CC(O)(C(=O)O)C[C@H]2O)ccc1O (some centres unmarked) [Compound 1P, 4-feruoylquinic acid] | – | – | – | – | – | – | – | – | 160 | fold less effective against TbCet1 than 5-feruoylquinic acid (TbCet1): 13 fold
COc1cc(/C=C/C(=O)OC2(C(=O)O)C[C@@H](O)C(O)[C@H](O)C2)ccc1O (some centres unmarked) [Compound 1R, 1-feruoylquinic acid] | – | – | – | – | – | – | – | – | > 500 | inhibition of TbCet1 (in words) (TbCet1): inactive
O=C(/C=C/c1ccc(O)c(O)c1)O[C@@H]1C[C@@](O)(C(=O)O)C[C@@H](O)[C@@H]1O [Compound 1T, 5-caffeoylquinic acid] | – | – | – | – | – | – | – | – | > 500 | –
O=C(C=Cc1ccccc1)OC1C=C(C(=O)O)CC(OC(=O)C=Cc2ccccc2)C1O (centres unmarked) [Compound 6D, 3,5-dicannamolylshikimate] | – | – | – | – | – | – | – | – | > 500 | inhibition of TbCet1 (in words) (TbCet1): did not inhibit
O=C(/C=C/c1ccc(O)c(O)c1)O[C@@H]1CC(C(=O)O)=C[C@@H](O)[C@H]1O [Compound 6E, 5-caffeoylshikimate] | – | – | – | – | – | – | – | – | > 500 | inhibition of TbCet1 (in words) (TbCet1): did not inhibit
O=C(O)[C@]1(O)C[C@@H](O)[C@@H](O)[C@H](O)C1 [Quinic acid, reference compound] | – | – | – | – | – | – | – | – | – | inhibition of TbCet1 (in words) (TbCet1): no inhibition
O=C(O)c1cc(O)c(O)c(O)c1 [gallic acid, 3,4,5-trihydroxybenzoic acid, reference compound] | – | – | – | – | – | – | – | – | – | inhibition of TbCet1 (in words) (TbCet1): no inhibition
